From patent US8119683B2, “Aryl substituted sulfonamide compounds and their use as anticancer agents” (Taipei Medical University, priority 2009, dated 2012)
pIC50: −log10 of the molar value.

Tests used:
[1] = test system: Human oral epidermoid carcinoma KB cells; test: Cell growth inhibition assay (methylene blue dye), KB cells; format: cell-based; conditions: KB cells, bands, read-out: IC50, inhibiting proliferation of KB cells (band)
Protocol: Anticancer activities of the aryl substituted sulfonamide compounds synthesized in the above examples were evaluated by testing their inhibitory effects on mammalian cancer cell growth.
Human oral epidermoid carcinoma KB cells, non small cell lung carcinoma H460 cells, colorectal carcinoma HT29 cells, and stomach carcinoma MKN45 cells were maintained in RPMI-1640 medium supplied with 5% fetal bovine serum. The cells were treated with the test compound at various concentrations for 72 h.

Row | Structure (SMILES) | melting point [°C] | pIC50 [1]
1 | COc1ccc(S(=O)(=O)n2ccc3ccnc(Nc4ccccc4)c32)cc1 [Compound 1, [1-(4-methoxy-benzenesulfonyl)-1H-pyrrolo[2,3-c]pyridin-7-yl]-phenyl-amine] | 138.5 to 139.7 | 
2 | COc1ccc(S(=O)(=O)n2ccc3ccnc(N(C)C)c32)cc1 [Compound 3, [1-(4-methoxy-benzenesulfonyl)-1H-pyrrolo[2,3-c]pyridin-7-yl]-dimethyl-amine] | 154.8 to 157.5 | 
3 | COc1ccc(Nc2nccc3ccn(S(=O)(=O)c4ccc(OC)cc4)c23)cc1 [Compound 4, [1-(4-methoxy-benzenesulfonyl)-1H-pyrrolo[2,3-c]pyridin-7-yl]-(4-methoxy-phenyl)-amine] | 155.5 to 158.3 | 
4 | COc1ccc(S(=O)(=O)n2ccc3ccnc(Nc4ccc(F)cc4)c32)cc1 [Compound 5, (4-fluoro-phenyl)-[1-(4-methoxy-benzenesulfonyl)-1H-pyrrolo[2,3-c]pyridin-7-yl]-amine] | 125.1 to 127.1 | 
5 | COc1ccc(S(=O)(=O)n2ccc3ccnc(-c4ccccc4)c32)cc1 [Compound 6, 1-(4-methoxy-benzenesulfonyl)-7-phenyl-1H-pyrrolo[2,3-c]pyridine] | 148.9 to 151 | 
6 | COC(=O)c1ccc(-c2nccc3ccn(S(=O)(=O)c4ccc(OC)cc4)c23)cc1 [Compound 7, 4-[1-(4-methoxy-benzenesulfonyl)-1H-pyrrolo[2,3-c]pyridin-7-yl]-benzoic acid methyl ester] | 143.5 to 146.5 | 
7 | COc1ccc(S(=O)(=O)n2ccc3ccnc(-c4ccc(F)cc4)c32)cc1 [Compound 8, 7-(4-fluoro-phenyl)-1-(4-methoxy-benzenesulfonyl)-1H-pyrrolo[2,3-c]pyridine] | 136 to 137 | 
8 | COc1ccc(S(=O)(=O)n2ccc3ccnc(-c4ccc(Cl)cc4)c32)cc1 [Compound 9, 7-(4-chloro-phenyl)-1-(4-methoxy-benzenesulfonyl)-1H-pyrrolo[2,3-c]pyridine] | 125.5 to 128.5 | 
9 | COc1ccc(S(=O)(=O)n2ccc3ccnc(-c4ccc(O)cc4)c32)cc1 [Compound 10, 4-[1-(4-methoxy-benzenesulfonyl)-1H-pyrrolo[2,3-c]pyridin-7-yl]-phenol] | 179 to 182 | 
10 | COc1ccc(-c2nccc3ccn(S(=O)(=O)c4ccc(OC)cc4)c23)cc1 [Compound 11, 1-(4-methoxy-benzenesulfonyl)-7-(4-methoxy-phenyl)-1H-pyrrolo[2,3-c]pyridine] | 162.8 to 164.8 | 
11 | COc1ccc(S(=O)(=O)n2ccc3ccnc(-c4ccc(N(C)C)cc4)c32)cc1 [Compound 12, {4-[1-(4-methoxy-benzenesulfonyl)-1H-pyrrolo[2,3-c]pyridin-7-yl]-phenyl}-dimethyl-amine] | 111.5 to 114.5 | 
12 | COc1ccc(S(=O)(=O)n2ccc3ccnc(-c4ccncc4)c32)cc1 [Compound 13, 1-(4-methoxy-benzenesulfonyl)-7-pyridin-4-yl-1H-pyrrolo[2,3-c]pyridine] | 193.1 to 194.3 | 
13 | COc1ccc(S(=O)(=O)n2ccc3ccnc(-c4ccc([N+](=O)[O-])cc4)c32)cc1 [Compound 14, 1-(4-methoxy-benzenesulfonyl)-7-(4-nitro-phenyl)-1H-pyrrolo[2,3-c]pyridine] | 177.5 to 178.8 | 
14 | COc1ccc(S(=O)(=O)n2ccc3ccnc(-c4ccc(C(F)(F)F)cc4)c32)cc1 [Compound 15, 1-(4-methoxy-benzenesulfonyl)-7-(4-trifluoromethyl-phenyl)-1H-pyrrolo[2,3-c]pyridine] | 143.1 to 144.9 | 
15 | COc1ccc(S(=O)(=O)n2ccc3ccnc(-c4ccco4)c32)cc1 [Compound 16, 7-furan-2-yl-1-(4-methoxy-benzenesulfonyl)-1H-pyrrolo[2,3-c]pyridine] | 127.1 to 130.3 | 
16 | COc1ccc(S(=O)(=O)n2ccc3cccc(-c4ccc(C#N)cc4)c32)cc1 [Compound 18, 4-[1-(4-methoxy-benzenesulfonyl)-1H-indol-7-yl]-benzonitrile] | 164.3 to 165.7 | 
17 | COc1ccc(S(=O)(=O)n2ccc3cccc(-c4ccc(F)cc4)c32)cc1 [Compound 19, 7-(4-fluoro-phenyl)-1-(4-methoxy-benzenesulfonyl)-1H-indole] | 181.2 to 182.4 | 
18 | COc1ccc(S(=O)(=O)N2CCc3cccc(-c4ccc(N)cc4)c32)cc1 [Compound 20, 4-[1-(4-methoxy-benzenesulfonyl)-2,3-dihydro-1H-indol-7-yl]-phenylamine] | 183.9 to 185.6 | 6.15 to 7.00
19 | COc1ccc(S(=O)(=O)N2CCc3cccc(-c4ccc(F)c(F)c4)c32)cc1 [Compound 21, 7-(3,4-difluoro-phenyl)-1-(4-methoxy-benzenesulfonyl)-2,3-dihydro-1H-indole] | 180.2 to 181.4 | 7.00 to 9.00

Row | Structure (SMILES) | melting point [°C] | pIC50 [1]
20 | COc1ccc(-c2cccc3c2N(S(=O)(=O)c2ccc(OC)cc2)CC3)cc1 [Compound 23, 1-(4-methoxy-benzenesulfonyl)-7-(4-methoxy-phenyl)-2,3-dihydro-1H-indole] | 176.3 to 177.4 | 6.15 to 7.00
21 | COc1ccc(S(=O)(=O)N2CCc3cccc(-c4ccc(F)nc4)c32)cc1 [Compound 25, 7-(6-fluoro-pyridin-3-yl)-1-(4-methoxy-benzenesulfonyl)-2,3-dihydro-1H-indole] | 139.8 to 141.7 | 6.15 to 7.00
22 | COc1ccc(S(=O)(=O)N2CCc3cccc(-c4ccc(O)cc4)c32)cc1 [Compound 26, 4-[1-(4-methoxy-benzenesulfonyl)-2,3-dihydro-1H-indol-7-yl]-phenol] | 179.4 to 180.5 | 6.15 to 7.00
23 | COc1ccc(S(=O)(=O)N2CCc3cccc(-c4ccc(F)cc4)c32)cc1 [Compound 28, 7-(4-fluoro-phenyl)-1-(4-methoxy-benzenesulfonyl)-2,3-dihydro-1H-indole] | 178.1 to 179.4 | 7.00 to 9.00
24 | COc1ccc(S(=O)(=O)N2CCc3cccc(-c4ccco4)c32)cc1 [Compound 29, 7-furan-2-yl-1-(4-methoxy-benzenesulfonyl)-2,3-dihydro-1H-indole] | 176.7 to 177.7 | 7.00 to 9.00
25 | COc1ccc(S(=O)(=O)N2CCc3cccc(-c4cccs4)c32)cc1 [Compound 30, 1-(4-methoxy-benzenesulfonyl)-7-thiophen-2-yl-2,3-dihydro-1H-indole] | 127.7 to 129.1 | 6.15 to 7.00
26 | COc1ccc(S(=O)(=O)N2CCc3cccc(-c4ccc(N(C)C)cc4)c32)cc1 [Compound 31, {4-[1-(4-methoxy-benzenesulfonyl)-2,3-dihydro-1H-indol-7-yl]-phenyl}-dimethyl-amine] | 178.4 to 179.7 | 6.15 to 7.00
27 | COc1ccc(S(=O)(=O)N2CCc3cccc(-c4cc(OC)c(OC)c(OC)c4)c32)cc1 [Compound 32, 1-(4-methoxy-benzenesulfonyl)-7-(3,4,5-trimethoxy-phenyl)-2,3-dihydro-1H-indole] | 202.5 to 204.8 | 
28 | COc1ccc(S(=O)(=O)N2CCc3cccc(-c4ccc(Cl)cc4)c32)cc1 [Compound 33, 7-(4-chloro-phenyl)-1-(4-methoxy-benzenesulfonyl)-2,3-dihydro-1H-indole] | 177.1 to 178.3 | 6.15 to 7.00
29 | COc1ccc(S(=O)(=O)N2CCc3cccc(-c4ccc(C(F)(F)F)cc4)c32)cc1 [Compound 34, 1-(4-methoxy-benzenesulfonyl)-7-(4-trifluoromethyl-phenyl)-2,3-dihydro-1H-indole] | 179.7 to 181 | 6.15 to 7.00
30 | COc1ccc(S(=O)(=O)N2CCc3cccc(-c4cccc(F)c4)c32)cc1 [Compound 35, 7-(3-fluoro-phenyl)-1-(4-methoxy-benzenesulfonyl)-2,3-dihydro-1H-indole] | 180 to 181.3 | 
31 | COc1ccc(S(=O)(=O)N2CCc3cccc(-c4ccccn4)c32)cc1 [Compound 36, 1-(4-methoxy-benzenesulfonyl)-7-pyridin-2-yl-2,3-dihydro-1H-indole] | 195.1 to 197 | 7.00 to 9.00
32 | COc1ccc(S(=O)(=O)N2CCc3cccc(-c4ccc([N+](=O)[O-])cc4)c32)cc1 [Compound 37, 1-(4-methoxy-benzenesulfonyl)-7-(4-nitro-phenyl)-2,3-dihydro-1H-indole] | 177.1 to 178.4 | 7.00 to 9.00
33 | COc1ccc(S(=O)(=O)N2CCc3cccc(-c4ccc(C=O)cc4)c32)cc1 [Compound 38, 4-[1-(4-methoxy-benzenesulfonyl)-2,3-dihydro-1H-indol-7-yl]-benzaldehyde] | 152 to 153 | 7.00 to 9.00
34 | COc1ccc(S(=O)(=O)N2CCc3cccc(-c4ccc(C=CC(=O)NO)cc4)c32)cc1 [Compound 41, N-hydroxy-3-{4-[1-(4-methoxy-benzenesulfonyl)-2,3-dihydro-1H-indol-7-yl]-phenyl}-acrylamide] | 200 to 201 | 
35 | NS(=O)(=O)c1ccc(S(=O)(=O)N2CCc3cccc(-c4ccc(F)cc4)c32)cc1 [Compound 42, 4-[7-(4-fluoro-phenyl)-2,3-dihydro-indole-1-sulfonyl]-benzenesulfonamide] | 188.7 to 190.2 | 
36 | NS(=O)(=O)c1ccc(S(=O)(=O)N2CCc3cccc(-c4ccncc4)c32)cc1 [Compound 43, 4-(7-pyridin-4-yl-2,3-dihydro-indole-1-sulfonyl)-benzenesulfonamide] | 241.7 to 242.9 | 
37 | COc1ccc(S(=O)(=O)n2ccc3ccnc(-c4cccs4)c32)cc1 [Compound 44, 1-(4-methoxy-benzenesulfonyl)-7-thiophen-2-yl-1H-pyrrolo[2,3-c]pyridine] | 112.2 to 113.7 | 
38 | COc1ccc(S(=O)(=O)N2CCc3cccc(-c4cccnc4)c32)cc1 [Compound 46, 1-(4-methoxy-benzenesulfonyl)-7-pyridin-3-yl-2,3-dihydro-1H-indole] | 178.8 to 181 | 
